The values that follow come from the CATMoS acute toxicity set (Mansouri et al. 2021).

Several values for one entry are separate records, joined by “and”; a condition that tells them apart may be missing. Identical values can stand only once.

The nature of the series: rat acute oral toxicity. The conditions noted are these: in vivo. An excerpt:
[…]The data set underlying the modeling effort for this project was initially compiled by NICEATM and U.S. EPA’s CCTE. Briefly, LD50 data were collected from rat acute oral systemic toxicity tests, including limit tests, ranges/confidence intervals, and discrete LD50 values. The full data set included 21,200 LD50 entries for 15,688 substances. […] Data were reviewed to ensure that LD50 values with obvious errors in the extracted data such as unit conversion errors (e.g., comma and decimal separator misplacements) were either fixed or removed. After this review, 16,209 LD50 values remained. Many of the chemicals represented had multiple LD50 entries, requiring that a single representative value per Chemical Abstracts Service Registry Number (CASRN) identifier be defined to facilitate modeling efforts. Based on ATWG feedback and to define the representative LD50 as a protective value while accounting for the distribution across multiple LD50s, the median of the lowest quartile was computed using only discrete LD50 values (omitting limit test data and range and confidence interval data). A detailed summary of the data compilation is available online on the NICEATM webpage dedicated to the collaborative modeling project (NTP 2020).
[…][…] For categorical designations, limit test and range/confidence interval LD50 data were integrated wherever possible. As such, the number of chemicals with end point values/calls varies across the modeling end points (Table 3) based on whether chemicals had representative LD50 values and/or other data. If a chemical had both, the representative value was used to determine categorical calls rather than limit test data. Some data were useable only for certain end points and categories depending on the thresholds. For example, ranges that spanned multiple hazard categories were considered only for the binary (very toxic/nontoxic) end points and omitted from rendering a determination for hazard category assignment.
[…]The final data set comprising 11,992 chemicals was split into training and evaluation sets […], respectively. This process was performed semirandomly by ordering chemicals based on the five end points (categorical and continuous LD50 values) and partitioning every fourth record into the evaluation set accordingly. This approach was taken to ensure an equivalent distribution of the LD50 values and the different hazard categories between the training and the evaluation sets without supervised sampling of the chemicals based on structures (Figure 1A). The sources of the chemical structures were also kept equivalent between the two sets, with chemical structures obtained from DSSTox, being the highest quality, representing over 75% of each set (Figure 1B).

As to `CS(=O)(=O)Cl`, the LD50 is 50 mg/kg.
The result for `CC(C)c1ccc2ccc(C(C)C)cc2c1` reads 4130 mg/kg; that for `CN(C)c1ccccc1`, 951 mg/kg.
The compound `CC(C)CCCCCCCOP(OCCCCCCCC(C)C)OCCCCCCCC(C)C` had an LD50 of 12000 mg/kg. Against the preceding compound, the LD50 is about 13-fold higher.
`Clc1ccc(C(c2ccc(Cl)cc2)C(Cl)(Cl)Cl)cc1` had an LD50 of 87 mg/kg.
The result for `CC(C)COC(=O)CC(C(=O)OCC(C)C)S(=O)(=O)O` (centres undefined) reads 2770 mg/kg; that for `C#C[C@]1(O)CC[C@H]2[C@@H]3CCc4cc(O)ccc4[C@H]3CC[C@@]21C`, 960 mg/kg.
For the compound `CN(C)CCCN1c2ccccc2Sc2ccc(Cl)cc21`, the 50% lethal dose (LD50) is 142 mg/kg and 143 mg/kg.
The result for `CNC1=Nc2ccc(Cl)cc2C(c2ccccc2)=[N+]([O-])C1` reads 392 mg/kg; that for `CCOc1ccc(NC(C)=O)cc1`, 1650 mg/kg.
With `O=C(CS)OC(CO)CO`, the LD50 turned out to be 172 mg/kg.
Consider `CC1=CCC(O)(C(C)C)CC1` (centres undefined), for which the LD50 came out at 1300 mg/kg. This LD50 lies about 7.6-fold higher than the previous one.
Take `Cc1cc(C)cc(N)c1`: the LD50 was 707 mg/kg.
`ClCCl` registered an LD50 of 1500 mg/kg. This LD50 is about 2.1-fold higher than that of the compound before.
In turn, `CC(=O)CC(C)=O` showed an LD50 of 570 mg/kg.
With `OCCCCCCO`, the 50% lethal dose (LD50) was 3000 mg/kg. Compared with the last compound, the LD50 is about 5.3-fold higher.
In the case of `OCC1CO1` (centres undefined), the LD50 is 420 mg/kg.
The result for `CN(C)C(C)(C)CO` reads 1660 mg/kg.
The value for `NC(=O)CF` was 5.75 mg/kg; that for `NCCCOCCOCCOCCCN` was 2850 mg/kg.
Compound `C#CC(C)(C)O` had an LD50 of 1420 mg/kg.
Regarding `CCCCOC(=O)c1ccccc1C(=O)OCCCC`, the LD50 was found to be 6300 mg/kg.
For `CC(=O)OCCOC(C)=O`, the LD50 turned out to be 6850 mg/kg. The LD50 values of the last two compounds are within 1.5-fold of each other.
`NC1CCC(CC2CCC(N)CC2)CC1` (centres undefined) registered an LD50 of 350 mg/kg.
The value for `C=CC(=O)OCC1CO1` (centres undefined) was 150 mg/kg; that for `O=C1NC(=O)C2C3C(C(O)(c4ccccc4)c4ccccn4)=CC(C3=C(c3ccccc3)c3ccccn3)C12` (centres undefined) was 3.8 mg/kg; that for `CCCCN(CCCC)C(=O)N(CCCC)CCCC` was 16700 mg/kg.
`Clc1ccc(-c2ccc(Cl)c(Cl)c2Cl)c(Cl)c1Cl`: the LD50 was found to be 1300 mg/kg.
On to `OCC(F)(F)F`, for which the LD50 was 153 mg/kg.
Take `NNC(=O)c1ccncc1`: the LD50 is 650 mg/kg.
Turning to `COc1ccccc1[N+](=O)[O-]`, the LD50 turned out to be 740 mg/kg. The LD50 values of the last two compounds are within 1.5-fold of each other.
Consider `CCN(CC)c1c([N+](=O)[O-])cc(C(F)(F)F)c(N)c1[N+](=O)[O-]`, for which the 50% lethal dose (LD50) amounted to 3000 mg/kg.
`CC(C)(C)CC(C)(C)c1ccc(O)cc1` came in with an LD50 of 4040 mg/kg.
On to `O=[N+]([O-])c1ccc(O)c([N+](=O)[O-])c1`, for which the median lethal dose (LD50) amounted to 30 mg/kg.
With `ClC1(Cl)C2(Cl)C3(Cl)C4(Cl)C(Cl)(Cl)C5(Cl)C3(Cl)C1(Cl)C5(Cl)C24Cl` (centres undefined), the LD50 was 235 mg/kg. Compared with the last compound, the LD50 is about 7.8-fold higher.
`C[C@@H](O)C(=O)O` gave an LD50 of 3540 mg/kg. This LD50 is about 15-fold higher than that of the compound before.
As to `CCCCNCCCC`, the 50% lethal dose (LD50) was found to be 189 mg/kg.
For `ClC(Br)Br`, the LD50 was 370 mg/kg.
The value for `COC(=O)/C=C\C(=O)OC` was 1410 mg/kg; that for `Cc1ccc(Cl)cc1` was 2100 mg/kg.
In the case of `CCCCN(C)C`, the LD50 came out at 184 mg/kg.
The value for `OC(O)C(Cl)(Cl)Cl` was 479 mg/kg.
The value for `CC(C)N` was 111 mg/kg; that for `Oc1nc2ccccc2[nH]1` was 1930 mg/kg.
`C=CC(=O)OCC` gave an LD50 of 800 mg/kg.
Turning to `CCCOP(=O)(OCCC)Oc1ccc(SC)cc1`, the LD50 was determined as 61 mg/kg.
Turning to `CC(C)(C)c1ccc(C(O)CCCN2CCC(C(O)(c3ccccc3)c3ccccc3)CC2)cc1` (centres undefined), the median lethal dose (LD50) is 438 mg/kg. Against the preceding compound, the LD50 is about 7.2-fold higher.
The compound `O=[N+]([O-])OCC(CO[N+](=O)[O-])O[N+](=O)[O-]` came in with an LD50 of 105 mg/kg. This LD50 lies about 4.2-fold lower than the previous one.
As for `COC(=O)CC(C)=O`, the median lethal dose (LD50) was found to be 2580 mg/kg. This LD50 lies about 25-fold higher than the previous one.
The value for `Oc1ccc(Cl)cc1` was 500 mg/kg; that for `CCCCC(CC)C(=O)O` (centres undefined) was 2040 mg/kg.
The compound `Cc1ccc(O)cc1` returned an LD50 of 207 mg/kg.
The compound `C1=CC2C3C=CC(C3)C2C1` (centres undefined) registered an LD50 of 366 mg/kg.
With `C=CC(=O)NC(C)(C)CC(C)=O`, the LD50 was 1000 mg/kg.
`CC(CCl)OC(C)CCl` (centres undefined): the LD50 stood at 240 mg/kg.
`CCOCCOCCOCC` came in with an LD50 of 4970 mg/kg. Against the preceding compound, the LD50 is about 21-fold higher.
Take `COP(=O)(NC(C)=O)SC` (centres undefined): the LD50 worked out at 700 mg/kg. Compared with the last compound, the LD50 is about 7.1-fold lower.
The result for `ClCC1CO1` (centres undefined) reads 65 mg/kg; that for `CCCCOC(=O)CCCCCCCCC(=O)OCCCC`, 14900 mg/kg.
